Data published in PubChem BioAssay AID463094 (The Scripps Research Institute Molecular Screening Center, 2010).
Calls of active or inactive are those of the source.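 How the source made its calls: active means inhibition at or above 90%; inactive means inhibition below 90%.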

Target: Glutathione S-transferase omega-1 (Homo sapiens) (UniProt P78417)
Assay: cellular GSTO1 activity blockade by competitive ABPP – cell-based, MDA-MB-435, in-gel fluorescence, late-stage follow-up (AID 463094)
Details: MDA-MB-435 in situ, 1 h, at 1 µM, active compounds read high

Chain of Glutathione S-transferase omega-1 (Homo sapiens) (P78417 whole entry, looked up): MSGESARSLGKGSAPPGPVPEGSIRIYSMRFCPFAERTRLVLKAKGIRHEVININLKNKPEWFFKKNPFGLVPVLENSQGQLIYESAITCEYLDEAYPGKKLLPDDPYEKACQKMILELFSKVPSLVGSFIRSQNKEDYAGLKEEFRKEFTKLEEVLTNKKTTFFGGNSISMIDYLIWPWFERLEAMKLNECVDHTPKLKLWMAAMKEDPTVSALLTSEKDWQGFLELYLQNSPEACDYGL

Compound	inhibition
Cc1cccc(CN2CCN(C(=O)CCl)CC2)c1	53% (inactive)
C#CCCCCNC(=O)C(c1cccnc1)N(C(=O)CCl)c1ccc(F)cc1 (stereo not given)	95%
C#CCN(CCCN(C(=O)CCl)c1ccc([N+](=O)[O-])cc1)C(=O)C(F)(F)F	100%
COc1ccc(N(C(=O)CCl)C(C(=O)NC2CCCCC2)c2cccnc2)cc1 (stereo not given)	95%
C#CCNC(=O)C(c1ccc(OC)cc1)N(C(=O)CCl)c1cccc(Cl)c1 (stereo not given)	77% (inactive)
COc1ccc(C(C(=O)NC2CCCCC2)N(C(=O)CCl)c2cccc(Cl)c2)cc1 (stereo not given)	100%

Now from value to compound:

inhibition	Compound
97%	C#CCCC(=O)NCCCN(C(=O)CCl)c1ccc([N+](=O)[O-])cc1
30% (inactive)	C#CCNC(=O)C(c1ccc(OC)cc1)N(C(=O)CCl)c1ccc(Cl)cc1 (stereo not given)
65% (inactive)	CCOC(=O)c1sc(N(Cc2ccccc2)C(=O)CCl)nc1C
100%	O=C(NC1CCCCC1)C(c1cccnc1)N(C(=O)CCl)c1ccc(F)cc1 (stereo not given)
17% (inactive)	O=S(=O)(c1ccc(Cl)cc1)N1CCC2(CC1)CO2
100%	O=C(NC1CCCCC1)C(c1cccnc1)N(C(=O)CCl)c1cccc(Cl)c1 (stereo not given)
90%	C#CCCCCNC(=O)C(c1ccc(OC)cc1)N(C(=O)CCl)c1cccc(Cl)c1 (stereo not given)
60% (inactive)	COc1ccc(C(C(=O)NC2CCCCC2)N(C(=O)CCl)c2ccc(Cl)cc2)cc1 (stereo not given)
95%	COc1ccc(N(C(=O)CCl)C(C(=O)NCCc2ccccc2)c2cccs2)cc1Cl (stereo not given)
